Positions of bridges follow the written chain, without caps; N, C: chain ends. Non-standard residues stand in square brackets, D forms with d. Residues, ends and D or L forms follow the SMILES beside them. *: point of attachment. X1 = CC[C@H](C)CCCCC(=O)*; Dab = NCC[C@H](N)C(=O)O
Assay: Steady-state plasma concentrations of polymyxin B (total of B1, B2, B1-Ile) by LC-MS/MS
Format: in vivo
Conditions: human, iv, read-out: OUT (observed polymyxin B plasma concentration)
Excerpt: We gather data from critically ill patients (≥18 years old) who were given intravenous drip polymyxin B treatment with blood concentration monitoring at the hospital from November 2021 to September 2022. The attending physician decided to administer polymyxin B. At the same time, patients who received continuous renal replacement therapy (CRRT) (n = 10) or extracorporeal membrane oxygenation (ECMO) (n = 2) at the time of blood collection were excluded. Patients’ information, including gender, age, WT, serum creatinine (Scr), CCR, ALB, APACHE-II, infection diagnosis, and pathogenic bacteria, were obtained from the electronic system for medical records. CCR was generated by adopting the Cockcroft—Gault equation with WT and age ([Cucci et al., 2022]). The Ethical Committees of the Second Affiliated Hospital of the South China University of Technology authorized the study (K-2022-020-01).
Patients were treated with polymyxin B, and plasma samples were collected ≥ 48 h after the treatment. Each patient contributed clinical samples, of which 37.5% (n = 24) were sampled with troughs (within 1 h before administration), 35.9% (n = 23) were sampled with peaks (within 1 h after the end of the infusion), and 26.6% (n = 17) were sampled at 6-8 h after the infusion. The dosing regimens of polymyxin B were a loading dose of 100 mg–150 mg and a maintenance dose of 50 mg–75 mg q12h, and the infusion duration was about 1–2 h. In preparation for analysis, samples were centrifuged for 10 min at 3000 r min^-1 after collection, and the upper plasma after centrifugation was stored at −20°C.
According to previous studies, total polymyxin B1, polymyxin B2, and polymyxin B1-Ile concentrations in human blood plasma were quantified using LC-MS/MS ([Meng et al., 2016]; [Hee et al., 2017]). The standard used in our experiments was the USP standard with the batch number of R104F0. The chromatographic column was the Kinetex C18 (3 μm × 2.1 mm×100 mm. Phenomenex). A: B mobile phase was 0.1% formic acid to acetonitrile. With changes in the linear velocity ratio, gradient elution was as follows: 15% −15% B, 0–2.0 min; 15%–10% B, 2.01–4.0 min; 10%–30% B, 4.01–5.0 min; 15% B, 5.01 min; and 15%–15% B, 5.02–10 min. The flow rate was constrained to 0.8 mL min^-1, and the column temperature was set to 40°C. The parent/daughter ion mass ratios used in the mass spectrometry were m/z 602.6/241.2 (polymyxin B1 and B1-Ile) and m/z 595.6/202.1 (polymyxin B2). Plasma samples (100 μL) were collected from centrifuged blood samples, mixed with 500 μL precipitant (acetonitrile with 6.67% formic acid) and vortexed well for 1 min. The lower limit of quantification (LLOQ) of the bioanalytical method used for quantifying polymyxin B1, B2, and B1-Ile concentrations was 0.19, 0.02 and 0.02 mg L^-1, respectively. The linear relationships of polymyxin B1, B2, and B1-Ile concentrations in the range of 0.19–24.13 mg L^-1, 0.02–2.7 mg L^-1 and 0.02–2.38 mg L^-1 were considered good (R^2 = 0.99677, R^2 = 0.99656, R^2 = 0.99484) and the accuracy was within 95.3%–105.3%, 92.2%–104.8%, and 95.8%–105.4%. […] Finally, 200 μL of the supernatant from the centrifugation of the combination at 14,000 r min^-1 for 10 min was employed to measure the amounts of polymyxin B.

SMILES: CC[C@H](C)CCCCC(=O)N[C@@H](CCN)C(=O)N[C@H](C(=O)N[C@@H](CCN)C(=O)N[C@H]1CCNC(=O)[C@H]([C@@H](C)O)NC(=O)[C@H](CCN)NC(=O)[C@H](CCN)NC(=O)[C@H](CC(C)C)NC(=O)[C@@H](Cc2ccccc2)NC(=O)[C@H](CCN)NC1=O)[C@@H](C)O [polymyxin B] (X1-[Dab]T[Dab][Dab][Dab][dF]L[Dab][Dab]T; lactam 4-C)
- level at 47.67 h (50 mg, patient ID 2, TIME 47.67, DOSE 50 every 12 from 0 to 36, DUR 1, WT 56, CCR 34.05, ALB 30.1, APACHE 20, single sample): 3020 ng/mL
- level at 50 h (50 mg, patient ID 6, TIME 50, DOSE 50 every 12 from 0 to 48, DUR 1, WT 60, CCR 81.34, ALB 36.6, APACHE 18, single sample): 4480 ng/mL
- level at 300 h (50 mg, patient ID 7, TIME 300, DOSE 50 from 0, ADDL 25, II 12, DUR 1, WT 52, CCR 121.16, ALB 32.1, APACHE 21, single sample): 2640 ng/mL
- level at 301 h (50 mg, patient ID 7, TIME 301, DOSE 50 from 0, ADDL 25, II 12, DUR 1, WT 52, CCR 121.16, ALB 32.1, APACHE 21, single sample): 7720 ng/mL
- level at 306.5 h (50 mg, patient ID 7, TIME 306.5, DOSE 50 from 0, ADDL 25, II 12, DUR 1, WT 52, CCR 121.16, ALB 32.1, APACHE 21, single sample): 4180 ng/mL
- level at 133.6 h (50 mg, patient ID 9, TIME 133.6, DOSE 50 from 0, ADDL 11, II 12, DUR 1, WT 55, CCR 34.79, ALB 30.8, APACHE 15, single sample): 3740 ng/mL
- level at 139 h (50 mg, patient ID 9, TIME 139, DOSE 50 from 0, ADDL 11, II 12, DUR 1, WT 55, CCR 34.79, ALB 30.8, APACHE 15, single sample): 3180 ng/mL
- level at 145 h (50 mg, patient ID 9, TIME 145, DOSE 50 from 0, ADDL 11, II 12, DUR 1, WT 55, CCR 34.79, ALB 30.8, APACHE 15, single sample): 2890 ng/mL
- level at 195 h (50 mg, patient ID 15, TIME 195, DOSE 50 every 12 from 133 (DUR 1, ADDL 11), WT 50, CCR 35.85, ALB 29.5, APACHE 39, single measurement): 4600 ng/mL
- level at 207 h (50 mg, patient ID 15, TIME 207, DOSE 50 every 12 from 133 (DUR 1, ADDL 11), WT 50, CCR 35.85, ALB 29.5, APACHE 39, single measurement): 2250 ng/mL
- level at 266.25 h (50 mg, patient ID 15, TIME 266.25, DOSE 50 every 12 from 133 (DUR 1, ADDL 11), WT 50, CCR 35.85, ALB 29.5, APACHE 39, single measurement): 4870 ng/mL
- level at 277 h (50 mg, patient ID 15, TIME 277, DOSE 50 every 12 from 133 (DUR 1, ADDL 11), WT 50, CCR 35.85, ALB 29.5, APACHE 39, single measurement): 2420 ng/mL
- level at 169.25 h (50 mg, patient ID 16, TIME 169.25, DOSE 50 every 12 from 0 (DUR 2, ADDL 14), WT 65, CCR 75.18, ALB 32, APACHE 31, single measurement): 6980 ng/mL
- level at 174 h (50 mg, patient ID 16, TIME 174, DOSE 50 every 12 from 0 (DUR 2, ADDL 14), WT 65, CCR 75.18, ALB 32, APACHE 31, single measurement): 2970 ng/mL
- level at 179 h (50 mg, patient ID 16, TIME 179, DOSE 50 every 12 from 0 (DUR 2, ADDL 14), WT 65, CCR 75.18, ALB 32, APACHE 31, single measurement): 2460 ng/mL
- level at 120 h (50 mg, patient ID 17, TIME 120, DOSE 50 every 12 from 0 (DUR 1, ADDL 10), WT 75, CCR 55.08, ALB 38.8, APACHE 22, single measurement): 4530 ng/mL
- level at 121.48 h (50 mg, patient ID 17, TIME 121.48, DOSE 50 every 12 from 0 (DUR 1, ADDL 10), WT 75, CCR 55.08, ALB 38.8, APACHE 22, single measurement): 2350 ng/mL
- level at 62.5 h (50 mg, patient ID 18, TIME 62.5, DOSE 50 at 0, 12, 24, 36, 48, 60, DUR 2, WT 80, CCR 169.94, ALB 41.5, APACHE 29, single measurement): 4860 ng/mL
- level at 66 h (50 mg, patient ID 18, TIME 66, DOSE 50 at 0, 12, 24, 36, 48, 60, DUR 2, WT 80, CCR 169.94, ALB 41.5, APACHE 29, single measurement): 1800 ng/mL
- level at 72 h (50 mg, patient ID 18, TIME 72, DOSE 50 at 0, 12, 24, 36, 48, 60, DUR 2, WT 80, CCR 169.94, ALB 41.5, APACHE 29, single measurement): 839 ng/mL
- level at 97 h (75 mg, patient ID 12, TIME 97, DOSE 75 from 0, ADDL 9, II 12, DUR 1, WT 60, CCR 104.47, ALB 33.9, APACHE 24, single sample): 9560 ng/mL
- level at 102 h (75 mg, patient ID 12, TIME 102, DOSE 75 from 0, ADDL 9, II 12, DUR 1, WT 60, CCR 104.47, ALB 33.9, APACHE 24, single sample): 4840 ng/mL
- level at 108 h (75 mg, patient ID 12, TIME 108, DOSE 75 from 0, ADDL 9, II 12, DUR 1, WT 60, CCR 104.47, ALB 33.9, APACHE 24, single sample): 2990 ng/mL
- level at 74.33 h (75 mg, patient ID 15, TIME 74.33, after DOSE 75 at 73 (DUR 1, ADDL 4, II 12), WT 50, CCR 35.85, ALB 29.5, APACHE 39, single measurement): 8900 ng/mL
- level at 217 h (75 mg, patient ID 22, TIME 217, DOSE 75 every 12 from 0 (ADDL 18), DUR 1, WT 60, CCR 155.65, ALB 24.3, APACHE 30, single measurement): 3620 ng/mL
- level at 222 h (75 mg, patient ID 22, TIME 222, DOSE 75 every 12 from 0 (ADDL 18), DUR 1, WT 60, CCR 155.65, ALB 24.3, APACHE 30, single measurement): 2060 ng/mL
- level at 228 h (75 mg, patient ID 22, TIME 228, DOSE 75 every 12 from 0 (ADDL 18), DUR 1, WT 60, CCR 155.65, ALB 24.3, APACHE 30, single measurement): 1060 ng/mL
- level at 60.5 h (patient ID 1, TIME 60.5, DOSE 100 at 0 then 50 every 12 to 48, DUR 1, WT 58, CCR 69.29, ALB 23.1, APACHE 30, single sample): 2270 ng/mL
- level at 325 h (patient ID 3, TIME 325, DOSE 100 at 0 then 50 from 12, ADDL 27, II 12, DUR 1, WT 57, CCR 61.5, ALB 33.8, APACHE 21, single sample): 6600 ng/mL
- level at 330 h (patient ID 3, TIME 330, DOSE 100 at 0 then 50 from 12, ADDL 27, II 12, DUR 1, WT 57, CCR 61.5, ALB 33.8, APACHE 21, single sample): 2930 ng/mL
- level at 336 h (patient ID 3, TIME 336, DOSE 100 at 0 then 50 from 12, ADDL 27, II 12, DUR 1, WT 57, CCR 61.5, ALB 33.8, APACHE 21, single sample): 3140 ng/mL
- level at 59 h (patient ID 4, TIME 59, DOSE 100 at 0 then 50 every 12 to 48, DUR 1, WT 58, CCR 61.95, ALB 25.5, APACHE 28, single sample): 863 ng/mL
- level at 64.5 h (patient ID 4, TIME 64.5, DOSE 100 at 0 then 50 every 12 to 60, DUR 1, WT 58, CCR 61.95, ALB 25.5, APACHE 28, single sample): 2330 ng/mL
- level at 167.9 h (patient ID 5, TIME 167.9, DOSE 100 at 0 then 50 from 12, ADDL 15, II 12, DUR 1, WT 60, CCR 41.15, ALB 36.1, APACHE 21, single sample): 2900 ng/mL
- level at 182 h (patient ID 5, TIME 182, DOSE 100 at 0 then 50 from 12, ADDL 15, II 12, DUR 1, WT 60, CCR 41.15, ALB 36.1, APACHE 21, single sample): 4510 ng/mL
- level at 186 h (patient ID 5, TIME 186, DOSE 100 at 0 then 50 from 12, ADDL 15, II 12, DUR 1, WT 60, CCR 41.15, ALB 36.1, APACHE 21, single sample): 3290 ng/mL
- level at 73.25 h (patient ID 10, TIME 73.25, DOSE 100 at 0 then 50 every 12 to 72, DUR 1, WT 62, CCR 72.12, ALB 33.9, APACHE 17, single sample): 6730 ng/mL
- level at 79 h (patient ID 10, TIME 79, DOSE 100 at 0 then 50 every 12 to 72, DUR 1, WT 62, CCR 72.12, ALB 33.9, APACHE 17, single sample): 6230 ng/mL
